Laboratory results from patent US20250186437A1, “CARBOLINE COMPOUNDS AND USE THEREOF” (PTC Therapeutics, Inc., priority 2021, published 2025).
pIC50: −log10 of the molar value.

test system: MOLM-13 cells; test: MOLM-13 Cell Proliferation Assay (indicator of DHODH inhibition); assay type: cell-based; conditions: Homo sapiens, 72 Hours of culture, CellTiter-Glo, no uridine
Method in brief: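 Low-passage MOLM-13 cells (10^4/well) in RPMI 1640 + 10% FBS exposed to compound (0.5% DMSO final) for 72 h at 37 °C, 5% CO2. Viability read by CellTiter-Glo luminescence; growth reflects de novo pyrimidine synthesis dependent on DHODH.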

| Structure (SMILES) | pIC50 |
| --- | --- |
| N#Cc1ccc(C2c3[nH]c4cc(F)c(Cl)cc4c3CCN2c2ncc(F)cn2)cc1 (stereo not shown) [Compound 32, 4-[6-chloro-7-fluoro-2-(5-fluoropyrimidin-2-yl)-2,3,4,9-tetrahydro-1H-pyrido[3,4-b]indol-1-yl]benzonitrile] | 7.31 |
| Cc1nc(C)nc(N2CCc3c([nH]c4ccc(Cl)cc34)C2c2ccc(N3C[C@@H]4C[C@H]3CO4)nc2)n1 (stereo partly drawn) [Compound 377, 6-chloro-2-(4,6-dimethyl-1,3,5-triazin-2-yl)-1-{6-[(1S,4S)-2-oxa-5-azabicyclo[2.2.1]heptan-5-yl]pyridin-3-yl}-2,3,4,9-tetrahydro-1H-pyrido[3,4-b]indole] | 7.38 |
| Cc1nc(C)nc(N2CCc3c([nH]c4ccc(Cl)cc34)C2c2cnc(N3CCC3)nc2)n1 (stereo not shown) [Compound 345, 1-[2-(azetidin-1-yl)pyrimidin-5-yl]-6-chloro-2-(4,6-dimethyl-1,3,5-triazin-2-yl)-2,3,4,9-tetrahydro-1H-pyrido[3,4-b]indole] | 7.36 |
| Cc1nc(C)nc(N2CCc3c([nH]c4ccc(Cl)cc34)C2c2ccc(F)cc2F)n1 (stereo not shown) [Compound 451, 6-chloro-1-(2,4-difluorophenyl)-2-(4,6-dimethyl-1,3,5-triazin-2-yl)-2,3,4,9-tetrahydro-1H-pyrido[3,4-b]indole] | 8.10 |
| N#Cc1ccc(C2c3[nH]c4cc(F)c(Cl)cc4c3CCN2c2nccc(C(F)(F)F)n2)cc1 (stereo not shown) [Compound 100, 4-{6-chloro-7-fluoro-2-[4-(trifluoromethyl)pyrimidin-2-yl]-2,3,4,9-tetrahydro-1H-pyrido[3,4-b]indol-1-yl}benzonitrile] | 8.19 |
| Cc1nc(N2CCc3c([nH]c4ccc(Cl)c(F)c34)C2c2ccc(Cl)cc2)ncc1F (stereo not shown) [Compound 70, 6-chloro-1-(4-chlorophenyl)-5-fluoro-2-(5-fluoro-4-methylpyrimidin-2-yl)-2,3,4,9-tetrahydro-1H-pyrido[3,4-b]indole] | 8.17 |
| Cc1nc(C)nc(N2CCc3c([nH]c4c(O)cc(Cl)cc34)C2c2ccc(N3CCOCC3)nc2)n1 (stereo not shown) [Compound 339, 6-chloro-2-(4,6-dimethyl-1,3,5-triazin-2-yl)-1-[6-(morpholin-4-yl)pyridin-3-yl]-2,3,4,9-tetrahydro-1H-pyrido[3,4-b]indol-8-ol] | 7.87 |
| Fc1cc2[nH]c3c(c2cc1Cl)CCN(c1nccc(Cl)n1)C3c1cccc(F)c1F (stereo not shown) [Compound 77, 6-chloro-2-(4-chloropyrimidin-2-yl)-1-(2,3-difluorophenyl)-7-fluoro-2,3,4,9-tetrahydro-1H-pyrido[3,4-b]indole] | 8.13 |
| Cc1ccc(C2c3[nH]c4ccc(Cl)c(F)c4c3CCN2c2ncc(Cl)cn2)cc1 (stereo not shown) [Compound 21, 6-chloro-2-(5-chloropyrimidin-2-yl)-5-fluoro-1-(4-methylphenyl)-2,3,4,9-tetrahydro-1H-pyrido[3,4-b]indole] | 8.01 |
| Fc1cc2[nH]c3c(c2cc1Cl)CCN(c1ncccn1)C3c1ccc(C2CC2)cc1 (stereo not shown) [Compound 45, 6-chloro-1-(4-cyclopropylphenyl)-7-fluoro-2-(pyrimidin-2-yl)-2,3,4,9-tetrahydro-1H-pyrido[3,4-b]indole] | 7.49 |
| Fc1c(Cl)ccc2[nH]c3c(c12)CCN(c1nccc(C(F)(F)F)n1)[C@@H]3c1ccc(Cl)cc1 [Compound 181, (1R)-6-chloro-1-(4-chlorophenyl)-5-fluoro-2-[4-(trifluoromethyl)pyrimidin-2-yl]-2,3,4,9-tetrahydro-1H-pyrido[3,4-b]indole] | 6.75 |
| Fc1ccc(C2c3[nH]c4ccc(Cl)cc4c3CCN2c2nccc(C(F)(F)F)n2)cc1 (stereo not shown) [Compound 422, 6-chloro-1-(4-fluorophenyl)-2-[4-(trifluoromethyl)pyrimidin-2-yl]-2,3,4,9-tetrahydro-1H-pyrido[3,4-b]indole] | 8.15 |
| CN(C)c1ncc(C2c3[nH]c4cc(F)c(Cl)cc4c3CCN2c2ncc(Cl)cn2)cn1 (stereo not shown) [Compound 102, 5-[6-chloro-2-(5-chloropyrimidin-2-yl)-7-fluoro-2,3,4,9-tetrahydro-1H-pyrido[3,4-b]indol-1-yl]-N,N-dimethylpyrimidin-2-amine] | 7.71 |
| Cc1ccnc(N2CCc3c([nH]c4cc(F)c(Cl)cc34)C2c2ccc(C(F)(F)F)cc2)n1 (stereo not shown) [Compound 81, 6-chloro-7-fluoro-2-(4-methylpyrimidin-2-yl)-1-[4-(trifluoromethyl)phenyl]-2,3,4,9-tetrahydro-1H-pyrido[3,4-b]indole] | 7.40 |
| Cc1nc(C)nc(N2CCc3c([nH]c4ccc(Cl)cc34)C2c2ccc(Cl)cc2F)n1 (stereo not shown) [Compound 468, 6-chloro-1-(4-chloro-2-fluorophenyl)-2-(4,6-dimethyl-1,3,5-triazin-2-yl)-2,3,4,9-tetrahydro-1H-pyrido[3,4-b]indole] | 8.28 |
| Cc1ccc(C2c3[nH]c4ccc(F)c(F)c4c3CCN2c2ncc(F)cn2)cc1 (stereo not shown) [Compound 82, 5,6-difluoro-2-(5-fluoropyrimidin-2-yl)-1-(4-methylphenyl)-2,3,4,9-tetrahydro-1H-pyrido[3,4-b]indole] | 7.06 |
| Cc1ccc(C2c3[nH]c4ccc(F)cc4c3CCN2c2ncnc(C(F)(F)F)n2)c(F)c1F (stereo not shown) [Compound 494, 1-(2,3-difluoro-4-methylphenyl)-6-fluoro-2-[4-(trifluoromethyl)-1,3,5-triazin-2-yl]-2,3,4,9-tetrahydro-1H-pyrido[3,4-b]indole] | 7.92 |

The next compounds have a higher pIC50 than those just listed; values first:

| pIC50 | Structure (SMILES) |
| --- | --- |
| 8.72 | Cc1ccc(C2c3[nH]c4ccc(Cl)c(F)c4c3CCN2c2nc(C#N)cc(C#N)n2)c(F)c1F (stereo not shown) [Compound 229, 2-[6-chloro-1-(2,3-difluoro-4-methylphenyl)-5-fluoro-1,3,4,9-tetrahydro-2H-pyrido[3,4-b]indol-2-yl]pyrimidine-4,6-dicarbonitrile] |
| 8.96 | Cc1ccc([C@H]2c3[nH]c4ccc(Cl)cc4c3CCN2c2nc(N3CCN(C)CC3)nc(C(F)(F)F)n2)c(F)c1F [Compound 477, (1S)-6-chloro-1-(2,3-difluoro-4-methylphenyl)-2-[4-(4-methylpiperazin-1-yl)-6-(trifluoromethyl)-1,3,5-triazin-2-yl]-2,3,4,9-tetrahydro-1H-pyrido[3,4-b]indole] |
| 8.43 | COc1ccc(C2c3[nH]c4ccc(Cl)cc4c3CCN2c2nccc(C(F)(F)F)n2)c(F)c1F (stereo not shown) [Compound 120, 6-chloro-1-(2,3-difluoro-4-methoxyphenyl)-2-[4-(trifluoromethyl)pyrimidin-2-yl]-2,3,4,9-tetrahydro-1H-pyrido[3,4-b]indole] |
| 8.49 | C[C@H]1CN(c2ncc([C@H]3c4[nH]c5ccc(Cl)cc5c4CCN3c3nc(C(F)(F)F)cc(C(F)(F)F)n3)cn2)CCN1 [Compound 517, (1S)-2-[4,6-bis(trifluoromethyl)pyrimidin-2-yl]-6-chloro-1-{2-[(3S)-3-methylpiperazin-1-yl]pyrimidin-5-yl}-2,3,4,9-tetrahydro-1H-pyrido[3,4-b]indole] |
| 8.68 | Cc1ccc(C2c3[nH]c4ccc(-n5nccn5)cc4c3CCN2c2nccc(C(F)(F)F)n2)c(F)c1F (stereo not shown) [Compound 502, 1-(2,3-difluoro-4-methylphenyl)-6-(2H-1,2,3-triazol-2-yl)-2-[4-(trifluoromethyl)pyrimidin-2-yl]-2,3,4,9-tetrahydro-1H-pyrido[3,4-b]indole] |
| 8.35 | N#Cc1nc(N2CCc3c([nH]c4cc(F)c(Cl)cc34)C2c2cccc(F)c2F)ncc1F (stereo not shown) [Compound 183, 2-[6-chloro-1-(2,3-difluorophenyl)-7-fluoro-1,3,4,9-tetrahydro-2H-pyrido[3,4-b]indol-2-yl]-5-fluoropyrimidine-4-carbonitrile] |
| 8.82 | Cc1ccc(C2c3[nH]c4ccc(Cl)cc4c3CCN2c2ncc(F)c(C)n2)c(F)c1F (stereo not shown) [Compound 235, 6-chloro-1-(2,3-difluoro-4-methylphenyl)-2-(5-fluoro-4-methylpyrimidin-2-yl)-2,3,4,9-tetrahydro-1H-pyrido[3,4-b]indole] |
| 9.15 | Cc1ccc([C@H]2c3[nH]c4ccc(Cl)cc4c3CCN2c2nc(C)nc(C(F)(F)F)n2)cc1 [Compound 467, (1S)-6-chloro-1-(4-methylphenyl)-2-[4-methyl-6-(trifluoromethyl)-1,3,5-triazin-2-yl]-2,3,4,9-tetrahydro-1H-pyrido[3,4-b]indole] |
| 8.33 | Cc1ccc([C@H]2c3[nH]c4ccc(Cl)cc4c3CCN2c2nc(C)nc(C)n2)cc1 [Compound 402, (1S)-6-chloro-2-(4,6-dimethyl-1,3,5-triazin-2-yl)-1-(4-methylphenyl)-2,3,4,9-tetrahydro-1H-pyrido[3,4-b]indole] |
| 8.89 | Cc1ccc(C2c3[nH]c4ccc(Cl)c([N+](=O)[O-])c4c3CCN2c2nccc(C(F)(F)F)n2)c(F)c1F (stereo not shown) [Compound 266, 6-chloro-1-(2,3-difluoro-4-methylphenyl)-5-nitro-2-[4-(trifluoromethyl)pyrimidin-2-yl]-2,3,4,9-tetrahydro-1H-pyrido[3,4-b]indole] |
| 8.39 | Fc1c(Cl)ccc2[nH]c3c(c12)CCN(c1nccc(C(F)(F)F)n1)C3c1ccc(Cl)cc1 (stereo not shown) [Compound 73, 6-chloro-1-(4-chlorophenyl)-5-fluoro-2-[4-(trifluoromethyl)pyrimidin-2-yl]-2,3,4,9-tetrahydro-1H-pyrido[3,4-b]indole] |
| 8.74 | Cc1ccc(C2c3[nH]c4cc(F)c(Cl)cc4c3CCN2c2nc(Cl)cc(Cl)n2)cc1 (stereo not shown) [Compound 16, 6-chloro-2-(4,6-dichloropyrimidin-2-yl)-7-fluoro-1-(4-methylphenyl)-2,3,4,9-tetrahydro-1H-pyrido[3,4-b]indole] |
| 8.39 | Cc1ccc(C2c3[nH]c4ccc(Cl)cc4c3CCN2c2nccc(Cl)n2)cc1 (stereo not shown) [Compound 10, 6-chloro-2-(4-chloropyrimidin-2-yl)-1-(4-methylphenyl)-2,3,4,9-tetrahydro-1H-pyrido[3,4-b]indole] |
| 8.92 | COc1ccc2[nH]c3c(c2c1)CCN(c1nc(C(F)(F)F)cc(C(F)(F)F)n1)[C@H]3c1ccc(C)c(F)c1F [Compound 528, (1S)-2-[4,6-bis(trifluoromethyl)pyrimidin-2-yl]-1-(2,3-difluoro-4-methylphenyl)-6-methoxy-2,3,4,9-tetrahydro-1H-pyrido[3,4-b]indole] |
